Tests used:
Experiment in all cases: relative viability (nuclei count vs DMSO), 5 days (fraction); higher = more cells survive
Neratinib + Phenformin = compound: CCOc1cc2ncc(C#N)c(Nc3ccc(OCc4ccccn4)c(Cl)c3)c2cc1NC(=O)/C=C/CN(C)C [Neratinib] + N=C(N)NC(=N)NCCc1ccccc1 [Phenformin] (partner 250 µM)
Outline: (§1)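 Lung cancer cell lines were pin-tool dosed in 1536-well plates on the day after seeding, with either a lone drug or a fixed anchor-drug dose plus five library-drug doses (not always all listed) in √10 steps. Nuclei were counted on 4× images after 5 days. Relative viability is the ratio of treated-well to vehicle-well nuclei counts, with each value a median of duplicate plates.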

Neratinib + Pictilisib = compound: CCOc1cc2ncc(C#N)c(Nc3ccc(OCc4ccccn4)c(Cl)c3)c2cc1NC(=O)/C=C/CN(C)C [Neratinib] + CS(=O)(=O)N1CCN(Cc2cc3nc(-c4cccc5[nH]ncc45)nc(N4CCOCC4)c3s2)CC1 [Pictilisib] (partner 1 µM)
Outline: as §1

Neratinib + AZD7762 = compound: CCOc1cc2ncc(C#N)c(Nc3ccc(OCc4ccccn4)c(Cl)c3)c2cc1NC(=O)/C=C/CN(C)C [Neratinib] + NC(=O)Nc1cc(-c2cccc(F)c2)sc1C(=O)N[C@H]1CCCNC1 [AZD7762] (partner 0.2 µM)
Outline: as §1

Neratinib + Alpelisib = compound: CCOc1cc2ncc(C#N)c(Nc3ccc(OCc4ccccn4)c(Cl)c3)c2cc1NC(=O)/C=C/CN(C)C [Neratinib] + Cc1nc(NC(=O)N2CCC[C@H]2C(N)=O)sc1-c1ccnc(C(C)(C)C(F)(F)F)c1 [Alpelisib] (partner 2 µM)
Outline: as §1

| Cell Line | relative viability (Neratinib + Phenformin; first compound 0.01 µM) | relative viability (Neratinib + Phenformin; first compound 0.03162 µM) | relative viability (Neratinib + Phenformin; first compound 0.1 µM) | relative viability (Neratinib + Phenformin; first compound 0.3162 µM) | relative viability (Neratinib + Phenformin; first compound 1 µM) | relative viability (Neratinib + Pictilisib; first compound 0.01 µM) | relative viability (Neratinib + Pictilisib; first compound 0.03162 µM) | relative viability (Neratinib + Pictilisib; first compound 0.1 µM) | relative viability (Neratinib + Pictilisib; first compound 0.3162 µM) | relative viability (Neratinib + Pictilisib; first compound 1 µM) | relative viability (Neratinib + AZD7762; first compound 0.01 µM) | relative viability (Neratinib + AZD7762; first compound 0.03162 µM) | relative viability (Neratinib + AZD7762; first compound 0.1 µM) | relative viability (Neratinib + AZD7762; first compound 0.3162 µM) | relative viability (Neratinib + AZD7762; first compound 1 µM) | relative viability (Neratinib + Alpelisib; first compound 0.01 µM) | relative viability (Neratinib + Alpelisib; first compound 0.03162 µM) | relative viability (Neratinib + Alpelisib; first compound 0.1 µM) | relative viability (Neratinib + Alpelisib; first compound 0.3162 µM) | relative viability (Neratinib + Alpelisib; first compound 1 µM) |
| --- | --- | --- | --- | --- | --- | --- | --- | --- | --- | --- | --- | --- | --- | --- | --- | --- | --- | --- | --- | --- |
| 201T | 0.484 | 0.424 | 0.44 | 0.379 | 0.42 | 0.728 | 0.727 | 0.667 | 0.662 | 0.756 | 0.672 | 0.618 | 0.447 | 0.59 | 0.527 | 1.06 | 0.945 | 0.926 | 1.01 | 0.9 |
| A-427 | 0.427 | 0.313 | 0.32 | 0.281 | 0.268 | 0.952 | 0.738 | 0.773 | 0.675 | 0.62 | 0.811 | 0.725 | 0.704 | 0.729 | 0.338 | 1.01 | 1.16 | 1.06 | – | 0.521 |
| ABC-1 | 0.211 | 0.236 | 0.285 | 0.231 | 0.215 | 0.783 | 0.582 | 0.672 | 0.666 | 0.387 | 0.955 | 0.659 | 0.682 | 0.779 | – | 1.16 | 1.04 | 0.726 | 0.904 | 0.384 |
| BEN | 0.259 | 0.279 | 0.22 | 0.251 | 0.248 | 0.627 | 0.665 | 0.495 | 0.479 | 0.441 | 0.745 | 0.804 | 0.628 | 0.571 | 0.596 | 1.06 | 1.28 | 0.983 | 1.04 | 0.598 |
| CAL-12T | 0.55 | 0.572 | 0.488 | 0.254 | 0.179 | 0.491 | 0.548 | 0.362 | 0.396 | 0.218 | 0.616 | 0.695 | 0.556 | – | 0.646 | 1.1 | 1.21 | 0.886 | 0.517 | 0.201 |
| COR-L23 | 0.44 | 0.469 | 0.429 | 0.473 | 0.41 | – | – | 0.739 | 0.644 | 0.257 | – | – | – | – | – | 0.971 | 0.83 | 0.732 | 0.698 | 0.322 |
| COR-L 105 | 0.537 | 0.467 | 0.304 | 0.221 | 0.193 | 0.455 | 0.412 | 0.377 | 0.31 | 0.312 | – | – | – | – | – | 1.04 | 0.936 | 0.704 | 0.263 | 0.255 |
| Calu-6 | – | – | – | – | – | 0.924 | 1.01 | 0.891 | 0.788 | 0.405 | – | – | – | – | – | 0.992 | 1.05 | 1.01 | 0.835 | 0.451 |
| ChaGo-K-1 | 0.466 | 0.518 | 0.482 | 0.432 | 0.401 | 0.668 | 0.781 | 0.689 | 0.639 | 0.614 | 0.93 | 0.879 | 0.648 | 0.842 | 0.788 | – | – | – | – | – |
| EBC-1 | – | – | – | – | – | 0.398 | 0.408 | 0.378 | 0.319 | 0.274 | – | – | – | – | – | 0.912 | 0.958 | 0.795 | 0.754 | 0.517 |
| EKVX | 0.241 | 0.244 | 0.226 | 0.206 | 0.132 | 0.476 | 0.387 | 0.32 | 0.163 | 0.129 | 0.726 | 0.699 | 0.609 | 0.441 | 0.199 | 0.878 | 0.973 | 0.645 | 0.284 | 0.161 |
| EMC-BAC-2 | 0.586 | 0.554 | 0.505 | 0.451 | 0.377 | 0.584 | 0.558 | 0.443 | 0.468 | 0.371 | 1.19 | 1.19 | 1 | 1.08 | 0.974 | 0.774 | – | 0.667 | 0.576 | 0.301 |
| EPLC-272H | – | 0.309 | 0.317 | 0.235 | 0.157 | 0.376 | 0.387 | 0.316 | 0.338 | 0.307 | 0.209 | 0.193 | 0.112 | 0.181 | 0.205 | 0.962 | 0.87 | 0.699 | 0.71 | 0.352 |
| H3255 | 0.311 | 0.28 | 0.242 | 0.222 | 0.246 | 0.453 | 0.469 | 0.301 | 0.117 | 0.109 | 1.01 | 0.824 | 0.588 | 0.288 | 0.247 | 0.706 | – | 0.468 | 0.171 | 0.107 |
| HARA | 0.387 | 0.578 | 0.385 | 0.318 | 0.215 | 0.494 | 0.294 | 0.362 | 0.262 | 0.336 | 0.563 | 0.293 | 0.263 | – | 0.261 | – | 0.813 | 0.545 | 0.385 | 0.264 |
| HCC-15 | 0.537 | 0.576 | 0.456 | 0.368 | 0.349 | 0.824 | 0.809 | 0.712 | 0.781 | 0.618 | 1.46 | 1.23 | 1.18 | 1.09 | 1.24 | 0.931 | 0.92 | 0.864 | 0.859 | 0.584 |
| HCC-44 | 0.22 | 0.228 | 0.213 | 0.157 | 0.245 | 0.852 | 0.561 | 0.655 | 0.642 | 0.643 | 0.961 | 0.995 | 0.947 | 1.05 | 1.12 | 0.97 | 0.95 | 0.702 | 0.838 | 0.754 |
| HCC-78 | 0.724 | 0.731 | 0.624 | 0.545 | 0.296 | 0.184 | 0.233 | 0.215 | 0.215 | 0.182 | 0.797 | 0.602 | 0.541 | 0.424 | 0.415 | 0.359 | 0.344 | 0.329 | 0.254 | 0.225 |
